Article PMC10714399, “Open Source Antibiotics: Simple Diarylimidazoles Are Potent against Methicillin-Resistant Staphylococcus aureus” (ACS Infectious Diseases, 2023)
Values after ≈ are worked out from the molar mass of the structure shown. Where two headings read alike, the source gives them in different places.

How the values were obtained:
VSE = experiment: In vitro antibacterial activity, MIC, VSE; assay type: cell-based
[1] = Rat hepatocyte intrinsic clearance; assay type: in vitro ADME; settings: rat hepatocytes, NEU; read-out: Rat Hep CLint (NEU)
[2] = HEK293 toxicity, 96-well dose-response (UCL; MTT or resazurin, with or without recovery); assay type: cell-based, human; settings: human, HEK293 cells; read-out: HEK293 CC50
Method in brief: (§1)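 HEK293 cells seeded 48 h beforehand (700 cells for recovery runs, 5000 for non-recovery), then exposed 24 h to 2-fold dilutions from 32 μg/mL down to […] (1% DMSO top). Viability read by MTT or resazurin, either immediately or after 72 h recovery; Dmax = 100 − viability% at 32 μg/mL.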

HEK293 cells = experiment: as above; assay type: cell-based, human; settings: 32 μg/mL
Method in brief: as §1

MIC (VSE; read-out: VSE MIC (UCL)) [µg/mL] | hepatocyte CLint [1] [µL/min/1e6 cells] | MIC (VSE; read-out: VSE MIC) [µg/mL] | SMILES | CC50 at 24 h [2] [µg/mL] | spread of Dmax values comparing recovery and non-recovery conditions (HEK293 cells)
4 (≈ 12.6 µM) | > 300 | – | c1ccc(-c2nc3n(c2-c2ccc4sccc4c2)CCC3)nc1 [OSA_000822] | 2.9 (≈ 9.14 µM) | –
– | 13.6 | – | c1ccc(-c2nc3n(c2-c2ccc4occc4c2)CCC3)nc1 [compound 821] | 1.7 (≈ 5.64 µM) | small difference
– | – | 4 (≈ 12.6 µM) | c1ccc(-c2nc3n(c2-c2ccc4sccc4c2)CCC3)nc1 [compound 822] | – | small difference
